Test results: publication PMC7093532, “Iron bioavailability from bouillon fortified with a novel ferric phytate compound: a stable iron isotope study in healthy women (part II)” (Scientific Reports, 2020)
Read-outs that look alike come from different tables or passages of the source.

Columns and labels:
[1] = dogs, cited from earlier work
[2] = cited from earlier work
[3] = cited from earlier work; remark: listed apart in the source
[4] = Stable iron isotope absorption study in healthy adult women (erythrocyte incorporation of oral isotopic labels)
Description: The human study was a controlled, single blind (to the subjects), single center trial. Healthy adult women (n = 23) consumed 6 different types of investigational products in random order with a cross-over design: bouillon with and without corn porridge fortified either with [^58Fe]-PA-HCP, [^54Fe]-SO4, or [^57Fe]-PP, resulting in 6 different test meal sequences. The sequences built up a Partial Williams Latin square, balanced for first order carry over. The experimental phase lasted for a period of 33 days.
The human study was conducted between December 2016 and February 2017 at the Laboratory of Human Nutrition of the ETH Zurich. […] The study procedure was explained in detail and written informed consent was obtained. An interview was conducted, weight and height were measured and a venous blood sample was drawn to assess whether participants fulfilled inclusion and exclusion criteria (Hb, Ht, number of erythrocytes, PF). […] The labelled iron-fortified test meals were administered on days 1, 2, 3, 17, 18 and 19 (Fig. 3). Test meals were administered between 07:00 and 09:30 after an overnight fast. The participants consumed the complete test meal and a glass of 300 mL ultrapure water in the presence of the investigators. […] Quantitative consumption of the investigational product was ensured by washing the glass test meal container 2 times with 10 mL of ultrapure water. After consuming the test meals, participants were not allowed to eat or drink for 3 h.
Venous blood samples were collected after an overnight fast on day 1 (baseline), day 17 and day 33 (endpoint) to determine iron status and iron absorption from the test meals. Iron absorption was determined by quantifying the incorporation of oral stable isotopic labels into erythrocytes. Adverse events and concomitant medication were inquired and documented during the entire study. All experiments were performed in accordance with relevant guidelines and regulations. The study was approved by the ethics Committee of the Canton Zurich, Switzerland (KEK-ZH-Nr. 2016–01472). Participants gave informed written consent before participation in the study and received a symbolic reimbursement at the end of the trial. The study was registered at clinicaltrials.gov as NCT02993835 on December 15, 2016.
The bouillon meal was prepared from 300 g ultrapure water and 7 g commercial vegetable bouillon powder (Maggi Gemüse Bouillon, Maggi, Singen, Germany) per serving. The bouillon contained iodized salt, dehydrated vegetables (onion, carrot, spinach, celery), yeast extracts, white sugar, potato starch, vegetable extracts (carrot, leek, onion, garlic), sunflower seed oil, natural flavours, spices (curcumin, paprika, nutmeg), chervil, caramelized sugar and natural celery flavour. […] The inhibitory meal was a corn porridge, prepared from 300 g ultrapure water, 7 g commercial vegetable bouillon powder and 50 g whole corn flour per serving (Farina per polenta integrale, Paolo Bassetti, Pianezzo, Switzerland) to achieve an absorption-inhibiting PA:Fe molar ratio of 5.0[31],[40], representative of a moderately inhibitory meal. Whole corn flour has a phytic acid content of about 1–2%, which is higher than in wheat (0.9%) and rice (0.7%)[12],[41]. Test meals were prepared the day before each feeding and stored in individual portions in a refrigerator overnight. On the day of administration, test meals were heated in a microwave oven. The pre-weighed vials containing the labeled iron compounds were added to the test meals and were rinsed 2 times with 2 mL of ultrapure water. […] Bouillon meals further contained 0.1 mg intrinsic iron and the inhibitory meals contained 0.8 mg Fe from the corn flour.

[5] = test system: Caco-2 cells
Description: In parallel to the in vivo human study, in vitro bioaccessibility of the iron compounds was assessed using a Caco-2 cell assay by assessing the amount of ferritin formed in response to the exposure to different digests. Iron fortified bouillon and bouillon with whole corn flour were prepared following the same procedure reported for the human study using [^58Fe]-PA-HCP, [^57Fe]-PP and [^54Fe]-SO4 at the level of 2.1 mg iron/3.3 g of bouillon mass through dry mixing. The resulting fortified bouillon mass was split in five fractions. Three fractions were analysed to assess iron homogeneity in the sample via Inductively Coupled Plasma Optical Emission Spectrometry (ICP-OES) as reported earlier[48] and the remaining two fractions were sent to USDA-ARS Robert Holley Center for Agriculture and Health (Ithaca, NY, USA) to determine in vitro fractional bioaccessibility (IVFBA). […]
In vitro relative bioaccessibility (IVRBA) of iron from the 2 meals with the 3 iron compounds was calculated based on ferritin formation in the Caco-2 cells: Invitrorelativebioaccessibility(IVRBA)=ngferrittinoffortifiedsample/mgproteinoffortifiedsample/ngferrittinofsamplefortifiedwith[^54Fe]SO4/mgproteinofsamplefortifiedwith[^54Fe]SO4×100
In the in vitro study, the IVFBAs were also approximately log normally distributed and analysed by robust ANOVA. […]

[6] = PF < 40 µg/L, bouillon + inhibitory meal
[7] = PF ≥ 40 µg/L, bouillon + inhibitory meal

For `O=P(O)(O)OC1C(OP(=O)(O)O)C(OP(=O)(O)O)C(OP(=O)(O)O)C(OP(=O)(O)O)C1OP(=O)(O)O.[Fe+3]` (stereo not drawn) [monoferric phytate], the absorption ([1]; added to meals) is listed as “equal to the major pool of dietary inorganic iron”, the bioavailability [1] is listed as “highly bioavailable” and the “relative biological value of iron” value ([2]; rat study) is listed as “equivalent to common iron fortificants such as ferrous ammonium sulfate”. For the same compound, the bioavailability ([2]; rats) was “highly bioavailable” and the iron absorption ([3]; humans) was “absorbed at least as well as the common pool of non-heme dietary iron”.

For Diphosphate sodium salt, the fractional absorption ([3]; bouillon, with the diphosphate added (4.4% without)) is listed as 6.4% and the relative bioavailability ([3]; in vivo) is listed as 13–23%.

With ferrous sulfate [FeSO4] the “Factor by which FIA is lower in the inhibitory meal compared to bouillon” value ([4]; in vivo) was 6.8 and the “In vitro fractional bioaccessibility (IVFBA), geo-mean” value [5] was 9.6%.

With `O=P([O-])([O-])OP(=O)([O-])[O-].O=P([O-])([O-])OP(=O)([O-])[O-].O=P([O-])([O-])OP(=O)([O-])[O-].[Fe+3].[Fe+3].[Fe+3].[Fe+3]` [FePP, Ferric pyrophosphate] the “factor (FIA, bouillon vs bouillon + inhibitory meal)” value ([4]; PF < 40 µg/L) was 6.7, the “factor (RBV, bouillon + inhibitory meal vs bouillon)” value ([4]; PF < 40 µg/L) was 1.2 and the “FIA, geo-mean” value ([4]; PF < 40 µg/L, bouillon) was 1.9%. The “RBV, geo-mean” value ([4]; PF < 40 µg/L, bouillon) was 5.8%, the “FIA, geo-mean” value [4, 6] was 0.3% and the “RBV, geo-mean” value [4, 6] was 7.1%. The “factor (FIA, bouillon vs bouillon + inhibitory meal)” value ([4]; PF ≥ 40 µg/L) was 6.2, the “factor (RBV, bouillon + inhibitory meal vs bouillon)” value ([4]; PF ≥ 40 µg/L) was 0.9 and the “FIA, geo-mean” value ([4]; PF ≥ 40 µg/L, bouillon) was 1.7%. The “RBV, geo-mean” value ([4]; PF ≥ 40 µg/L, bouillon) was 8.8%, the “FIA, geo-mean” value [4, 7] was 0.3% and the “RBV, geo-mean” value [4, 7] was 8.3%. For the same compound, the “Factor by which FIA is lower in the inhibitory meal compared to bouillon” value ([4]; all participants) was 5.9, the “Factor by which RBV is higher in the inhibitory meal compared to bouillon” value ([4]; all participants) was 1.2 and the RBV ([3]; fortified bouillon cubes, mean PF of participants 9.4 µg/L) was 13%.
